From ChEMBL document CHEMBL1148236, “Synthesis and structure-activity relationship of 3-arylbenzoxazines as selective estrogen receptor beta agonists” (Bioorg Med Chem Lett, 2004)
pEC50, pIC50: −log10 of the molar value.

Columns and labels:
Estrogen receptor beta [1] = target: T1, Estrogen receptor beta (Homo sapiens, UniProt Q92731)
Description: Ability to activate estrogen receptor 2-mediated transcription.

Estrogen receptor [2] = target: T2, Estrogen receptor (Homo sapiens, UniProt P03372)
T2 sequence (P03372 whole entry): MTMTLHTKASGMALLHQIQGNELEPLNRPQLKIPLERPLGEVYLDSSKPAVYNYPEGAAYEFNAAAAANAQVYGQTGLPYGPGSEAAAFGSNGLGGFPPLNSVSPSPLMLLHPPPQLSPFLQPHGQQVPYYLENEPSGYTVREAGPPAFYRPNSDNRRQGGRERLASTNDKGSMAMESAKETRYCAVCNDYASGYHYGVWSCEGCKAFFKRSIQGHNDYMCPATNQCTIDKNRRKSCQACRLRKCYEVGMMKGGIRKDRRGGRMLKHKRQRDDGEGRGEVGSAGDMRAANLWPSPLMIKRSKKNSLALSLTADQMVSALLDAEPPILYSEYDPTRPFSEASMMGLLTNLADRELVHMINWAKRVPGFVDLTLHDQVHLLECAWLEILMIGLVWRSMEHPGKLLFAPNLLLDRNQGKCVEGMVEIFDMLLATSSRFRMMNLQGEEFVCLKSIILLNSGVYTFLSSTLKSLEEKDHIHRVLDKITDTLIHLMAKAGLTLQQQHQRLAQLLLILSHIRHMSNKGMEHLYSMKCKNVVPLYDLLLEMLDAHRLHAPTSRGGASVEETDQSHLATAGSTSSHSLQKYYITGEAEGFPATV
Description: Ability to activate estrogen receptor 1-mediated transcription.

Estrogen receptor [3] = target: T2, Estrogen receptor; remark: listed apart in the source
Description: Binding affinity towards estrogen receptor alpha by [3H]17-beta-estradiol displacement.

Estrogen receptor beta [4] = target: T1, Estrogen receptor beta; remark: listed apart in the source
Description: Binding affinity towards estrogen receptor beta by [3H]17-beta-estradiol displacement.

T1 sequence (Q92731 whole entry): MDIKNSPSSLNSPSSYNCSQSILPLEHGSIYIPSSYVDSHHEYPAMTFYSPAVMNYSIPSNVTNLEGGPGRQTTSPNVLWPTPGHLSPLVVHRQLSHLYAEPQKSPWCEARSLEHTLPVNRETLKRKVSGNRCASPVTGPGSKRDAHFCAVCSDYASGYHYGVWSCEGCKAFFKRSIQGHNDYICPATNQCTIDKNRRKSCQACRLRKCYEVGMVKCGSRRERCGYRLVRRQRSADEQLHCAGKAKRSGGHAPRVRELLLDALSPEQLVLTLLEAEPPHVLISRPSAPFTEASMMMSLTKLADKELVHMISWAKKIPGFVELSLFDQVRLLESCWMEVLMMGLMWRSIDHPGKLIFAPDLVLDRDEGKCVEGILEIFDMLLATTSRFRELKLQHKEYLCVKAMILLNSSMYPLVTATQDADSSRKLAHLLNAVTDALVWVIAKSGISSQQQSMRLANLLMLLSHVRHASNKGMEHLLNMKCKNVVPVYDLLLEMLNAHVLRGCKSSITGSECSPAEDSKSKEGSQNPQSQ

SMILES | pEC50 (Estrogen receptor beta [1]) | pEC50 (Estrogen receptor [2]) | pIC50 (Estrogen receptor [3]) | pIC50 (Estrogen receptor beta [4])
Cc1cc(O)cc2c1N=C(c1ccc(O)c(Br)c1)C(C)O2 (centres undefined) | 7.80 | 7.34 | 6.49 | 7.05
CCC1Oc2cc(O)cc(O)c2N=C1c1ccc(O)c(Br)c1 (centres undefined) | 6.74 | 5.70 | 5.28 | 5.96
Oc1ccc(C2=Nc3c(O)cc(O)cc3OC2)cc1 | 6.57 | 5.74 | 4.48 | 5.55
CC1(C)Oc2cc(O)ccc2N=C1c1ccc(O)cc1 | 6.85 | 5.51 | 5.07 | 5.25
CC1(C)Oc2cc(O)cc(O)c2N=C1c1ccc(O)c(Br)c1 | 6.92 | 5.85 | 5.22 | 5.77
Oc1ccc2c(c1)CC1Oc3cc(O)ccc3N=C21 (centres undefined) | 7.11 | 6.05 | 5.25 | 5.85
Oc1ccc2c(c1)CCC1Oc3cc(O)ccc3N=C21 (centres undefined) | 6.62 | 4.92 | 5.22 | 5.59
Oc1ccc(C2=Nc3ccc(O)cc3OC2)cc1 | 6.80 | 5.16 | 4.80 | 5.54

Second part, the compound after the results:

pEC50 (Estrogen receptor beta [1]) | pEC50 (Estrogen receptor [2]) | pIC50 (Estrogen receptor [3]) | pIC50 (Estrogen receptor beta [4]) | SMILES
7.33 | 6.82 | 5.54 | 6.51 | CC1Oc2cc(O)cc(O)c2N=C1c1ccc(O)cc1 (stereo in doubt; 4i)
8.15 | 7.23 | 6.07 | 6.70 | CCC1Oc2cc(O)ccc2N=C1c1ccc(O)cc1 (centres undefined)
8.10 | 6.77 | 6.74 | 7.05 | CCC1Oc2cc(O)cc(C)c2N=C1c1ccc(O)c(Br)c1 (centres undefined)
7.74 | 5.77 | 5.77 | 6.49 | CCCC1Oc2cc(O)ccc2N=C1c1ccc(O)cc1 (centres undefined)
7.52 | 7.19 | 5.77 | 6.48 | CC1Oc2cc(O)ccc2N=C1c1ccc(O)cc1 (centres undefined)
7.59 | 6.77 | 5.92 | 6.92 | CCC1Oc2cc(O)cc(O)c2N=C1c1ccc(O)cc1 (centres undefined)
7.13 | 6.54 | 5.20 | 5.96 | CC1Oc2cc(O)cc(O)c2N=C1c1ccc(O)cc1 (single isomer, unassigned; enantiomer B)
7.30 | 6.85 | 5.55 | 6.62 | CC1Oc2cc(O)cc(O)c2N=C1c1ccc(O)cc1 (single isomer, unassigned)
